Consider three molecules from patent US10167266B2, “Sodium channel blockers” (Parion Sciences, Inc., priority 2002, dated 2019).

Series [1] deals with sodium channel (ENaC), canine bronchial epithelia. The series is described as follows: Sodium channel blocking activity: inhibition of short circuit current (ISC) in airway epithelial monolayers in Ussing chambers. It is filed as cell-based. As to conditions: for Fold Amiloride*: potency in canine bronchial epithelia relative to amiloride. As for the experimental part: One assay used to assess mechanism of action and/or potency of the compounds of the present invention involves the determination of lumenal drug inhibition of airway epithelial sodium currents measured under short circuit current (ISC) using airway epithelial monolayers mounted in Ussing chambers. Cells obtained from freshly excised human, dog, sheep or rodent airways are seeded onto porous 0.4 micron Snapwell™ Inserts (CoStar), cultured at air-liquid interface (ALI) conditions in hormonally defined media, and assayed for sodium transport activity (ISC) while bathed in Krebs Bicarbonate Ringer (KBR) in Using chambers. All test drug additions are to the lumenal bath with half-log dose addition protocols (from 1×10^−11 M to 3×10^−5 M), and the cumulative change in ISC (inhibition) recorded. All drugs are prepared in dimethyl sulfoxide as stock solutions at a concentration of 1×10^−2 M and stored at −20° C. Eight preparations are typically run in parallel; two preparations per run incorporate amiloride and/or benzamil as positive controls. After the maximal concentration (5×10^−5 M) is administered, the lumenal bath is exchanged three times with fresh drug-free KBR solution, and the resultant ISC measured after each wash for approximately 5 minutes in duration. Reversibility is defined as the percent return to the baseline value for sodium current after the third wash. All data from the voltage clamps are collected via a computer interface and analyzed off-line.
Dose-effect relationships for all compounds are considered and analyzed by the Prism 3.0 program. IC50 values, maximal effective concentrations, and reversibility are calculated and compared to amiloride and benzamil as positive controls.
Amiloride was also tested in this assay as a positive control. The results for the compounds of the present invention are reported as fold-enhancement values relative to amiloride.

Broadly, the melting point is the temperature, or range, at which the solid turns liquid.

Turning to `N=C(N)c1ccc(CCCCNC(N)=NC(=O)c2nc(Cl)c(N)nc2N)cc1` [drawing 62: X=C═NH, Y=NH2, 4-{4-[N′-(3,5-Diamino-6-chloropyrazine-2-carbonyl)guanidino]butyl}benzamidine], the melting point was 140 to 170 °C (dec.). In addition, the “Fold Amiloride*” value in series [1] (Example 43) is recorded as 53.2 ± 19.3 (2) fold.
`Cl.Cl.N=C(N)NCCOc1ccc(CCCCNC(=N)NC(=O)c2nc(Cl)c(N)nc2N)cc1` [drawing 64: X=NH—C(═NH)—NH2, N-(3,5-diamino-6-chloropyrazine-2-carbonyl)-N′-{4-[4-(2-guanidinoethoxy)-phenyl]butyl}guanidine dihydrochloride] had a melting point of 223 to 230 °C. In addition, the “Fold potency relative to amiloride” value in series [1] (Example 51) was 98.0 ± 58.5 (18). The “Fold Amiloride*” value in series [1] (Example 45) is recorded as 120.6 ± 60.8 (11) fold.
In the case of `Cl.Cl.N=C(NCCCCc1ccc(OCCN(C[C@@H](O)[C@@H](O)CO)C[C@@H](O)[C@@H](O)CO)cc1)NC(=O)c1nc(Cl)c(N)nc1N` [drawing 67: O CH2 CH2 NR R^a,c (r18), N-[4-(4-{2-[bis-((2R,3S)-2,3,4-trihydroxybutyl)amino]ethoxy}phenyl)-butyl]-N′-(3,5-diamino-6-chloropyrazine-2-carbonyl)guanidine dihydrochloride], the melting point was 93 to 96 °C (dec.). Besides, in series [1] (Example 48), the “Fold Amiloride*” value was 56.0 (1) fold.
